Experimental findings from patent US20200392158A1, “INHIBITORS OF LEUCINE RICH REPEAT KINASE 2” (GLAXOSMITHKLINE INTELLECTUAL PROPERTY DEVELOPMENT LIMITED, priority 2017, published 2020) are described below.

pIC50: −log10 of the molar value. Bounds are passed on as bounds.

The experiment deals with T1, full length G2019 human LRRK2 (Homo sapiens, UniProt Q5S007, R50H).
T1 construct: made in house; host or cells: HEK293 6E cells transduced with BacMam virus (virus generated in Sf9 cells)
T1 sequence (Q5S007 with tags, fused parts or gaps R50H): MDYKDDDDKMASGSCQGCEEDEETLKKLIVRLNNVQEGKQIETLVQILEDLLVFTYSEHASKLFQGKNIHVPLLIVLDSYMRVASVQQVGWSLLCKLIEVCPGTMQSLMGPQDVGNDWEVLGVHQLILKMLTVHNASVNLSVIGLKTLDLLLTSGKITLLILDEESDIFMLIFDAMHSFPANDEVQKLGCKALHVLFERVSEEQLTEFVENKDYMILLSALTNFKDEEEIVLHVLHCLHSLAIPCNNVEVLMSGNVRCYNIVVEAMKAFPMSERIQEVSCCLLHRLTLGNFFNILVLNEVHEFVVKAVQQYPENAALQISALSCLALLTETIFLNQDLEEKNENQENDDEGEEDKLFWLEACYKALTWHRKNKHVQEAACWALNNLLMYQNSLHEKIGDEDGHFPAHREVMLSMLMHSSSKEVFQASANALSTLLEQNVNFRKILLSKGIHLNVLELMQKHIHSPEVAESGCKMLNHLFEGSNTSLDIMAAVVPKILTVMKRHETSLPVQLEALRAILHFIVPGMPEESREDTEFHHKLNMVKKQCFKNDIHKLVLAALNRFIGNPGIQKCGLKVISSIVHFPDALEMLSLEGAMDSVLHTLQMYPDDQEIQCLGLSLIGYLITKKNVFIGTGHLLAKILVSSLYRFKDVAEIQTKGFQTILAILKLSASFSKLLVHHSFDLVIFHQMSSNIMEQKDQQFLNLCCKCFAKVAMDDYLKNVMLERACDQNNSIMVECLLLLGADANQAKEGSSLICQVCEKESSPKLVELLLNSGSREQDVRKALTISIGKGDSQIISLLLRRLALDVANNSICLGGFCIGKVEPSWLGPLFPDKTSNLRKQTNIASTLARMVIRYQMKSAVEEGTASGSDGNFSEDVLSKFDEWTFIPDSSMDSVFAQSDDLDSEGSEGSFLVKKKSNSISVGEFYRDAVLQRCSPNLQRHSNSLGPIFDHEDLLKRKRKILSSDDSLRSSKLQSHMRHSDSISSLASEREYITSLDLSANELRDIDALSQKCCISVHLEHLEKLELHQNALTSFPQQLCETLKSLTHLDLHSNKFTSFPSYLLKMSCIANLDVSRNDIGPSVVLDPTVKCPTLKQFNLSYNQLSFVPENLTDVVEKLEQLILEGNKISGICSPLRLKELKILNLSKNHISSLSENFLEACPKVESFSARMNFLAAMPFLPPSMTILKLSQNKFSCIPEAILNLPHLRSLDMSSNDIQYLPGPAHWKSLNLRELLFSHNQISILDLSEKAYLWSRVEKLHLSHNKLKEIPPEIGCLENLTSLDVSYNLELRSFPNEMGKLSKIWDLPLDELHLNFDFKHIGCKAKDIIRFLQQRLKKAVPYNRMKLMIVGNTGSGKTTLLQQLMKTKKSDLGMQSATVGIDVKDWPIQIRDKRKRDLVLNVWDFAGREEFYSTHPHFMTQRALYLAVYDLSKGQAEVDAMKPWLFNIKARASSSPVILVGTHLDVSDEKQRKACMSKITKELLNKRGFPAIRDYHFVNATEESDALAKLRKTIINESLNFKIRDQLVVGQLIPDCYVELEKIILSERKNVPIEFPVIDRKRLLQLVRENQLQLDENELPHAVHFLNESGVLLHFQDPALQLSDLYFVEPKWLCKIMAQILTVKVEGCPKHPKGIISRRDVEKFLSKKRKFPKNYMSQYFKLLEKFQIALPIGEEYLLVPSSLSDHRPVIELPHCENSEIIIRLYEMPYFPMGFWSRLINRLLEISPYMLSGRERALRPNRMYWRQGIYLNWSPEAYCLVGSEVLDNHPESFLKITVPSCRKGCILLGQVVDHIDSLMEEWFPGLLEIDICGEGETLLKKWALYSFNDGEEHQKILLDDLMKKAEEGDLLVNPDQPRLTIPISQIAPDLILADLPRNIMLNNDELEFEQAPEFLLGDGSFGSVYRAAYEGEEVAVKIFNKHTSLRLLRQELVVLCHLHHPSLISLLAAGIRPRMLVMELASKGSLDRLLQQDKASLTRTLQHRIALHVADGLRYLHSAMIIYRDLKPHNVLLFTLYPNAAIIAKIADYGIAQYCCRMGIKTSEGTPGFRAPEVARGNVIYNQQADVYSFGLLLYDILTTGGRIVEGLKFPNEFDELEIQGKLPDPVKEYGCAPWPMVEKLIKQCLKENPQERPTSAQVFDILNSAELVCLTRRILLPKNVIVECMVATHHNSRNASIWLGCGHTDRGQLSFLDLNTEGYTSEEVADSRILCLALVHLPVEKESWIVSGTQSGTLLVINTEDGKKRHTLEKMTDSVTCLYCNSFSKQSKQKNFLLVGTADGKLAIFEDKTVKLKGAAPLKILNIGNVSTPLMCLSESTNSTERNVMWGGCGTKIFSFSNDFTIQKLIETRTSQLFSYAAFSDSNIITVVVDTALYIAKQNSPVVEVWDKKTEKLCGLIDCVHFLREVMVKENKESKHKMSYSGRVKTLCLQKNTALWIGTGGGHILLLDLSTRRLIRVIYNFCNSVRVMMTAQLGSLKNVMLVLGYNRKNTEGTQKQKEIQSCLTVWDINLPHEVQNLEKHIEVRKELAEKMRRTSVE
Briefly: Full length G2019 human LRRK2 inhibition mass spectrometry assay. It is filed as biochemical. Conditions: LRRKtide to phospho-LRRKtide conversion, RapidFire MS, 2 mM ATP. In outline: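 Purified full-length Flag-tagged G2019 LRRK2, ~25 nM, with 25 μM LRRKtide and 2 mM ATP in 50 mM Hepes pH 7.2, 10 mM MgCl2, 150 mM NaCl, 1 h at room temperature. Quenched with formic acid; phospho- and unphosphorylated LRRKtide measured by RapidFire MS. pIC50 from 4-parameter fit of % conversion, 11 points, top 100 μM.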
Compound `Cc1c2c(nn1C(C)(C)C#N)OCCC(C)Nc1nc(ncc1Cl)N2` (single isomer, unassigned) [E43, 2-{14-chloro-4,11-dimethyl-8-oxa-2,5,6,12,16,17-hexaazatricyclo [11.3.1.0^3,7]heptadeca-1(16),3,6,13(17),14-pentaen-5-yl}-2-methylpropanenitrile] gave a negative-log IC50 (pIC50) of at least 5.00.

The compound `Cc1c2c(nn1C1CCOCC1)OC(C)CCNc1nc(ncc1Cl)N2` (single isomer, unassigned) [E114, 14-chloro-4,9-dimethyl-5-(oxan-4-yl)-8-oxa-2,5,6,12,16,17-hexaazatricyclo[11.3.1.0^3,7]heptadeca-1(16),3,6,13(17),14-pentaene] showed a negative-log IC50 (pIC50) of at least 7.00.

Regarding `Cc1c2c(nn1C1(C(F)(F)F)CCOCC1)OCC[C@@H](C)Nc1nc(ncc1Cl)N2` [E419, (11R)-14-Chloro-4,11-dimethyl-5-[4-(trifluoromethyl)oxan-4-yl]-8-oxa-2,5,6,12,16,17-hexaazatricyclo[11.3.1.0^3,7]heptadeca-1(16),3,6,13(17),14-pentaene], the pIC50 is at least 7.00.

Consider `COC1CNc2nc(ncc2Cl)Nc2c(nn(CC3(C)COC3)c2C)OC1` (single isomer, unassigned) [E272, 14-Chloro-10-methoxy-4-methyl-5-[(3-methyloxetan-3-yl)methyl]-8-oxa-2,5,6,12,16,17-hexaazatricyclo [11.3.1.0^3,7]heptadeca-1(16),3,6,13(17),14-pentaene], for which the pIC50 was at least 7.00.

The compound `Cc1c2c(nn1C1CC(C)OC(C)C1)OCCC(C)Nc1nc(ncc1Cl)N2` (single isomer, unassigned) [E197, 14-Chloro-5-(2,6-dimethyloxan-4-yl)-4,11-dimethyl-8-oxa-2,5,6,12,16,17-hexaazatricyclo[11.3.1.0^3,7] heptadeca-1(16),3,6,13(17),14-pentaene] had a pIC50 of at least 5.00.

`Cc1c2c(nn1C1CCN(C3COC3)CC1F)OCCCNc1nc(ncc1Cl)N2` (single isomer, unassigned) [E62, trans-14-chloro-5-[3-fluoro-1-(oxetan-3-yl)piperidin-4-yl]-4-methyl-8-oxa-2,5,6,12,16,17-hexaazatricyclo[11.3.1.0^3,7]heptadeca-1(16),3,6,13(17),14-pentaene] showed a negative logarithm of the IC50 (pIC50) of at least 7.00.

In turn, `Cc1c2c(nn1CC(C)(C)O)OCCCNc1nc(ncc1Cl)N2` [E263, 1-{14-Chloro-4-methyl-8-oxa-2,5,6,12,16,17-hexaazatricyclo [11.3.1.0^3,7]heptadeca-1(16),3,6,13(17),14-pentaen-5-yl}-2-methylpropan-2-ol] showed a pIC50 of at least 5.00.

`Cc1c2c(nn1C1CCOCC1)OCCC(CF)Nc1nc(ncc1Cl)N2` (single isomer, unassigned) [E53, 14-chloro-11-(fluoromethyl)-4-methyl-5-(oxan-4-yl)-8-oxa-2,5,6,12, 16,17-hexaazatricyclo[11.3.1.0^3,7]heptadeca-1(16),3,6,13(17),14-pentaene] gave a pIC50 of at least 5.00.

`Cc1c2c(nn1C1CCC(N3C[C@H]4C[C@@H]3CO4)CC1)OCCC(C)Nc1nc(ncc1Cl)N2` (single isomer, unassigned) [E58] gave a pIC50 of at least 7.00.

Turning to `COC1CCCC(n2nc3c(c2C)Nc2ncc(Cl)c(n2)NCCCO3)C1` (single isomer, unassigned) [E180, 14-Chloro-5-(3-methoxycyclohexyl)-4-methyl-8-oxa-2,5,6,12,16,17-hexaazatricyclo[11.3.1.0^3,7]heptadeca-1(16),3,6,13(17),14-pentaene], the negative logarithm of the IC50 (pIC50) was at least 7.00.

Take `Cc1c2c(nn1C1COCCC1(F)F)OCCCNc1nc(ncc1Cl)N2` (single isomer, unassigned) [E303, 14-Chloro-5-(4,4-difluorooxan-3-yl)-4-methyl-8-oxa-2,5,6,12,16,17-hexaazatricyclo[11.3.1.0^3,7]heptadeca-1(16),3,6,13(17),14-pentaene]: the pIC50 was at least 5.00.

`Cc1c2c(nn1C1CCOCC1)OCC(C)C(C)Nc1nc(ncc1Cl)N2` (single isomer, unassigned) [E34, 14-chloro-4,10,11-trimethyl-5-(oxan-4-yl)-8-oxa-2,5,6,12,16,17-hexaazatricyclo [11.3.1.0^3,7]heptadeca-1(16),3,6,13(17),14-pentaene] had a pIC50 of at least 5.00.

With `Cc1c2c(nn1C(C)C1CCOCC1)OCCCNc1nc(ncc1Cl)N2` (single isomer, unassigned) [E187, 14-Chloro-4-methyl-5-[1-(oxan-4-yl)ethyl]-8-oxa-2,5,6,12,16,17-hexaazatricyclo[11.3.1.0^3,7]heptadeca-1(16), 3,6,13(17),14-pentaene], the pIC50 was at least 7.00.

On to `Cc1c2c(nn1C1CCOCC1)OCCC(C)Nc1nc(ncc1C(F)(F)F)N2` (single isomer, unassigned) [E290, 4,11-Dimethyl-5-(oxan-4-yl)-14-(trifluoromethyl) -8-oxa-2,5,6,12,16,17-hexaazatricyclo[11.3.1.0^3,7]heptadeca-1(16),3,6,13(17),14-pentaene], for which the negative-log IC50 (pIC50) is at least 5.00.

In the case of `Cc1c2c(nn1C1COCCC1(F)F)OCC[C@@H](C)Nc1nc(ncc1Cl)N2` (single isomer, unassigned) [E304], the pIC50 is at least 7.00.

Turning to `FC(F)(F)c1c2c(nn1C1CCOCC1)OCCCNc1nc(ncc1Cl)N2` [E424, 14-Chloro-5-(oxan-4-yl)-4-(trifluoromethyl)-8-oxa-2,5,6,12,16,17-hexaazatricyclo[11.3.1.0^3,7]heptadeca-1(16),3,6,13(17),14-pentaene], the pIC50 was at least 7.00.

In turn, `COc1cnc2nc1N[C@H](C)CCOc1nn(C3CCOCC3)c(C)c1N2` [E294, (11R)-14-Methoxy-4,11-dimethyl-5-(oxan-4-yl)-8-oxa-2,5,6,12,16, 17-hexaazatricyclo[11.3.1.0^3,7]heptadeca-1(16),3,6,13(17),14-pentaene] gave a pIC50 of at least 5.00.

For `Cc1c2c(nn1C1CCCOC1)OCC(C)CNc1nc(ncc1Cl)N2` (single isomer, unassigned) [E308, 14-Chloro-4,10-dimethyl-5-(oxan-3-yl)-8-oxa-2,5,6,12,16,17-hexaazatricyclo[11.3.1.0^3,7]heptadeca-1(16),3,6, 13(17),14-pentaene], the pIC50 was at least 7.00.

The compound `CCC1CCOc2nn(C3COC3)c(C)c2Nc2ncc(Cl)c(n2)N1` (single isomer, unassigned) [E320, 14-Chloro-11-ethyl-4-methyl-5-(oxetan-3-yl)-8-oxa-2,5,6,12,16,17-hexaazatricyclo[11.3.1.0^3,7]heptadeca-1(16), 3,6,13(17),14-pentaene] gave a pIC50 of at least 7.00.

As to `Cc1c2c(nn1C1CCC(N3C[C@@H]4C[C@H]3CO4)CC1)OCCCNc1nc(ncc1Cl)N2` (single isomer, unassigned) [E51], the negative-log IC50 (pIC50) is at least 7.00.

As for `Clc1cnc2nc1NCCCOc1nn(C3CCOCC3)c(C3CC3)c1N2` [E147, 14-Chloro-4-cyclopropyl-5-(oxan-4-yl)-8-oxa-2,5,6,12,16,17-hexaazatricyclo[11.3.1.0^3,7]heptadeca-1(16),3,6,13(17),14-pentaene], the pIC50 was at least 5.00.

Take `Cc1c2c(nn1C1(C(F)(F)F)CCOCC1)OCCCNc1nc(ncc1Cl)N2` [E418, 14-Chloro-4-methyl-5-[4-(trifluoromethyl)oxan-4-yl]-8-oxa-2,5,6,12,16,17-hexaazatricyclo[11.3.1.0^3,7]heptadeca-1(16),3,6,13(17),14-pentaene]: the pIC50 is at least 7.00.

Take `COC1CNc2nc(ncc2C(F)(F)F)Nc2c(nn(C3CCCOC3)c2C)OC1` (single isomer, unassigned) [E228, 10-Methoxy-4-methyl-5-(oxan-3-yl)-14-(trifluoromethyl)-8-oxa-2,5,6,12,16,17-hexaazatricyclo [11.3.1.0^3,7] heptadeca-1(17),3,6,13,15-pentaene]: the negative-log IC50 (pIC50) was at least 5.00.

`Cc1c2c(nn1C1CCOC1)OCCCNc1nc(ncc1C(F)(F)F)N2` (single isomer, unassigned) [E128, 4-methyl-5-(oxolan-3-yl)-14-(trifluoromethyl)-8-oxa-2,5,6,12,16,17-hexaazatricyclo[11.3.1.0^3,7]heptadeca-1(16),3,6,13(17),14-pentaene] had a negative-log IC50 (pIC50) of at least 7.00.

With `Cc1c2c(nn1C1CCOCC1)OCC[C@@H](C)Nc1nc(ncc1F)N2` [E295, (11R)-14-Fluoro-4,11-dimethyl-5-(oxan-4-yl)-8-oxa-2,5,6,12,16,17-hexaazatricyclo[11.3.1.0^3,7]heptadeca-1(16),3,6,13(17),14-pentaene], the pIC50 was at least 7.00.

Regarding `Cc1c2c(nn1C1CCOCC1)OCC[C@H](C)Nc1nc(ncc1Cl)N2` [E7, (11S)-14-Chloro-4,11-dimethyl-5-(oxan-4-yl)-8-oxa-2,5,6,12,16,17-hexaazatricyclo [11.3.1.0^3,7]heptadeca-1(16),3,6,13(17),14-pentaene], the pIC50 was at least 5.00.

As for `Cc1c2c(nn1CC(C)(C)O)OCCC(C)Nc1nc(ncc1Cl)N2` (single isomer, unassigned) [E264, 1-{14-Chloro-4,11-dimethyl-8-oxa-2,5,6,12,16,17-hexaazatricyclo[11.3.1.0^3,7]heptadeca-1(17),3,6,13,15-pentaen-5-yl}-2-methylpropan-2-ol], the negative logarithm of the IC50 (pIC50) was at least 5.00.

The pIC50 is the IC50 on a negative log10 scale, so that one unit is a factor of ten. Read a high pIC50 as a low IC50.
